Laboratory results taken from PMC10504751, “Chalcone/1,3,4-Oxadiazole/Benzimidazole hybrids as novel anti-proliferative agents inducing apoptosis and inhibiting EGFR & BRAFV^600E” (BMC Chemistry, 2023).

Assays:
Assay in all cases: NCI one-dose SRB anti-proliferative screen
Type in all cases: cell-based
NCI-H322M = conditions: Homo sapiens; NCI-H322M, Non-Small Cell Lung Cancer; NCI one dose; read-out: Cell growth inhibition %
Summary of the method: (§1)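 One concentration (10 µM) was used per compound. Proliferation was assessed using the sulforhodamine B colorimetric method across sixty lines grouped into nine cancer subpanels.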

A498 = conditions: Homo sapiens; A498, Renal cancer; NCI one dose; read-out: Cell growth inhibition %
Summary of the method: as §1

SF-268 = conditions: Homo sapiens; SF-268, CNS Cancer; NCI one dose; read-out: Cell growth inhibition %
Summary of the method: as §1

786-0 = conditions: Homo sapiens; 786-0, Renal cancer; NCI one dose; read-out: Cell growth inhibition %
Summary of the method: as §1

SF-539 = conditions: Homo sapiens; SF-539, CNS Cancer; NCI one dose; read-out: Cell growth inhibition %
Summary of the method: as §1

OVCAR-4 = conditions: Homo sapiens; OVCAR-4, Ovarian Cancer; NCI one dose; read-out: Cell growth inhibition %
Summary of the method: as §1

MCF7 = conditions: Homo sapiens; MCF7, Breast cancer; NCI one dose; read-out: Cell growth inhibition %
Summary of the method: as §1

TK-10 = conditions: Homo sapiens; TK-10, Renal cancer; NCI one dose; read-out: Cell growth inhibition %
Summary of the method: as §1

LOX IMVI = conditions: Homo sapiens
Summary of the method: as §1

OVCAR-8 = conditions: Homo sapiens; OVCAR-8, Ovarian Cancer; NCI one dose; read-out: Cell growth inhibition %
Summary of the method: as §1

SW-620 = conditions: Homo sapiens; SW-620, Colon cancer; NCI one dose; read-out: Cell growth inhibition %
Summary of the method: as §1

NCI-H522 = conditions: Homo sapiens; NCI-H522, Non-Small Cell Lung Cancer; NCI one dose; read-out: Cell growth inhibition %
Summary of the method: as §1

HT29 = conditions: Homo sapiens, HT-29; HT29, Colon cancer; NCI one dose; read-out: Cell growth inhibition %
Summary of the method: as §1

UACC-257 = conditions: Homo sapiens; UACC-257, Melanoma; NCI one dose; read-out: Cell growth inhibition %
Summary of the method: as §1

NCI-H23 = conditions: Homo sapiens; NCI-H23, Non-Small Cell Lung Cancer; NCI one dose; read-out: Cell growth inhibition %
Summary of the method: as §1

EKVX = conditions: Homo sapiens; EKVX, Non-Small Cell Lung Cancer; NCI one dose; read-out: Cell growth inhibition %
Summary of the method: as §1

ACHN = conditions: Homo sapiens; ACHN, Renal cancer; NCI one dose; read-out: Cell growth inhibition %
Summary of the method: as §1

HCC-2998 = conditions: Homo sapiens; HCC-2998, Colon cancer; NCI one dose; read-out: Cell growth inhibition %
Summary of the method: as §1

HCT-15 = conditions: Homo sapiens; HCT-15, Colon cancer; NCI one dose; read-out: Cell growth inhibition %
Summary of the method: as §1

NCI-H226 = conditions: Homo sapiens; NCI-H226, Non-Small Cell Lung Cancer; NCI one dose; read-out: Cell growth inhibition %
Summary of the method: as §1

MDA-MB-468 = conditions: Homo sapiens; MDA-MB-468, Breast cancer; NCI one dose; read-out: Cell growth inhibition %
Summary of the method: as §1

DU-145 = conditions: Homo sapiens; DU-145, Prostate Cancer; NCI one dose; read-out: Cell growth inhibition %
Summary of the method: as §1

OVCAR-5 = conditions: Homo sapiens; OVCAR-5, Ovarian Cancer; NCI one dose; read-out: Cell growth inhibition %
Summary of the method: as §1

HS 578T = conditions: Homo sapiens; HS 578T, Breast cancer; NCI one dose; read-out: Cell growth inhibition %
Summary of the method: as §1

OVCAR-3 = conditions: Homo sapiens; OVCAR-3, Ovarian Cancer; NCI one dose; read-out: Cell growth inhibition %
Summary of the method: as §1

IGROV1 = conditions: Homo sapiens, IGROV-1; IGROV1, Ovarian Cancer; NCI one dose; read-out: Cell growth inhibition %
Summary of the method: as §1

A549/ATCC = conditions: Homo sapiens; A549/ATCC, Non-Small Cell Lung Cancer; NCI one dose; read-out: Cell growth inhibition %
Summary of the method: as §1

U251 = conditions: Homo sapiens, U-251; U251, CNS Cancer; NCI one dose; read-out: Cell growth inhibition %
Summary of the method: as §1

UACC-62 = conditions: Homo sapiens; UACC-62, Melanoma; NCI one dose; read-out: Cell growth inhibition %
Summary of the method: as §1

KM12 = conditions: Homo sapiens; KM12, Colon cancer; NCI one dose; read-out: Cell growth inhibition %
Summary of the method: as §1

CCRF-CEM = conditions: Homo sapiens; CCRF-CEM, Leukemia; NCI one dose; read-out: Cell growth inhibition %
Summary of the method: as §1

What does the source list for `COc1ccc(-c2nc3cc(-c4nnc(SCC(=O)Nc5ccc(C(=O)/C=C/c6ccc(Cl)cc6)cc5)o4)ccc3[nH]2)cc1` [Compound 7l, 2-{5-[2-(4-Methoxyphenyl)-1 H-benzo[d]imidazol-5-yl]-1,3,4-oxadiazol-2-ylthio}-N-{4-[(E)-3-(4-chlorophenyl)acryloyl]phenyl}acetamide]?
inhibition at 10 µM (NCI-H322M): 0%; inhibition at 10 µM (A498): 15.7%; inhibition at 10 µM (SF-268): 5.15%; inhibition at 10 µM (786-0): 0.91%; inhibition at 10 µM (SF-539): 12.9%; inhibition at 10 µM (OVCAR-4): 0%; inhibition at 10 µM (MCF7): 22%; inhibition at 10 µM (TK-10): 0%; activity at 10 µM (LOX IMVI; LOX IMVI (Melanoma), 10 µM one dose, read-out: Growth Percent): -29.9%; inhibition at 10 µM (LOX IMVI; Melanoma, NCI one dose, read-out: Cell growth inhibition %): 130%; inhibition at 10 µM (OVCAR-8): 0%; inhibition at 10 µM (SW-620): 3.03%; inhibition at 10 µM (NCI-H522): 4.71%; inhibition at 10 µM (HT29): 0%; inhibition at 10 µM (UACC-257): 0%; inhibition at 10 µM (NCI-H23): 5.55%; inhibition at 10 µM (EKVX): 0.26%; inhibition at 10 µM (ACHN): 2.31%; inhibition at 10 µM (HCC-2998): 0%; inhibition at 10 µM (HCT-15): 13.9%; inhibition at 10 µM (NCI-H226): 5.85%; inhibition at 10 µM (MDA-MB-468): 1.89%; inhibition at 10 µM (DU-145): 0%; inhibition at 10 µM (OVCAR-5): 0.55%; inhibition at 10 µM (HS 578T): 9.4%; inhibition at 10 µM (OVCAR-3): 0%; inhibition at 10 µM (IGROV1): 12.8%; inhibition at 10 µM (A549/ATCC): 0%; inhibition at 10 µM (U251): 5.67%; inhibition at 10 µM (UACC-62): 6.01%; inhibition at 10 µM (KM12): 0%; inhibition at 10 µM (CCRF-CEM): 3.98%
